Common to all, as to test: NCI tumour cell line growth inhibition, 48 h
The test system of test [1] is 786-0 renal.
The subject of test [2] is A549 NSCLC.
Test [3] concerns HCT-15 colon.
Test [4] concerns HL-60(TB) leukemia.
Test [5] concerns HOP-92 NSCLC.
Test [6] deals with MDA-MB-231 breast.
Test [7] has as its system MDA-MB-435.
For test [8], the system named is OVCAR-5 ovarian.
The test system of test [9] is SK-OV-3 ovarian.
The subject of test [10] is SN12C renal.

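48-hour exposure; five concentrations; linearly interpolated endpoints. Abbreviation: GI50, concentration required for 50% inhibition of growth. TGI marks complete inhibition of growth.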

For seven compounds, GI50 and TGI results are on record in PubChem BioAssay (NCI).

For the compound `CC(=O)OCCC/C(=C/c1cc2ccccc2c2ccccc12)[N+](=O)[O-]`, the GI50 in [1] was 1680 nM; in test [2], 1.84 µM; in test [3] it was 1300 nM; in test [4], 1430 nM; in test [5], 1380 nM; in [6], 1780 nM. For the same compound, the GI50 in test [7] is 1460 nM; in test [8] it was 1680 nM; in test [9], 2560 nM; in test [10], 1750 nM. Further, the TGI in [1] was found to be 3.05 µM; in [2], 3.74 µM; in test [3], 2.62 µM; in test [4], 4.57 µM; in [5] it was 3.7 µM; in test [6] it was 4.3 µM. Moreover, the TGI stood at 3.16 µM in test [7], 3.11 µM in test [8], 7.38 µM in test [9] and 3.75 µM in test [10].

Take `NC(=O)/C=C/c1c[nH]c2nccnc12`: the TGI in [1] was above 100 µM; in test [2], above 100 µM; in test [3], 55.7 µM; in test [4], above 38.7 µM; in test [5], above 28.8 µM; in test [6], 31.6 µM. In addition, the TGI in test [7] is 13.2 µM; in test [8], 0.662 µM; in [9], above 100 µM; in [10] it was 11.4 µM.

Consider `COc1ncc(-c2ccc3ncnc(Nc4cccc(Cl)c4)c3c2)cc1NS(C)(=O)=O`, for which the GI50 was 2720 nM in [1]; 1.2 µM in test [2]; 1660 nM in test [3]; 848 nM in test [4]; 472 nM in test [5]; 1990 nM in test [6]. Further, the GI50 is 2770 nM in test [7], 273 nM in test [8], 813 nM in [9] and 1760 nM in [10]. Also, the TGI came to 24.9 µM in [1]; 13.2 µM in [2]; 13.2 µM in test [3]; 16.4 µM in test [4]; 5.28 µM in test [5]; 19.6 µM in test [6]. The TGI stood at 17.3 µM in test [7], 6.51 µM in test [8], 4.16 µM in test [9] and 31.8 µM in test [10].

Consider `C=C(C)C1Cc2cc(C(C)=O)ccc2O1` (stereo not given), for which the TGI in test [1], in test [2], in [3], in test [4], in test [5] and in [6] was above 100 µM in each case. Also, the TGI in [7], in test [8], in test [9] and in test [10] was above 100 µM throughout.

Turning to `NC1=CC(=O)C(=O)c2ccccc21`, the GI50 in test [1] is 25000 nM; in [2], 28.2 µM; in [3], 25100 nM; in [4] it was 11900 nM; in test [5], 30000 nM; in test [6] it was 11000 nM. Also, the GI50 in test [7] is 1840 nM; in [8] it was 18900 nM; in test [9] it was 47600 nM; in test [10], 2770 nM. Also, the TGI is 79.8 µM in test [1]; 97.6 µM in [2]; above 100 µM in [3]; 43.8 µM in test [4]; 93.8 µM in test [5]; 30.9 µM in test [6]. The TGI was 3.41 µM in test [7], 41.1 µM in test [8], above 100 µM in test [9] and 17.4 µM in test [10].

For the compound `O=C(O)c1ccccc1C(=O)Nc1cc2c(cc1Br)-c1ccccc1C2=O`, the TGI in test [1], in [2], in [3], in test [4], in test [5] and in [6] was above 100 µM in each case. In addition, the TGI in test [7], in test [8], in test [9] and in test [10] was above 100 µM in each case.

Regarding `COC(=O)C[C@@H]1CC=CC(=O)/C1=C(O)/C=C/c1ccccc1`, the GI50 is 519 nM in [1]; 4.23 µM in test [2]; 294 nM in test [3]; 1240 nM in test [4]; 1330 nM in test [5]; 1460 nM in [6]. Further, the GI50 was 357 nM in test [7], 1840 nM in test [8], 1700 nM in test [9] and 462 nM in [10]. Also, the TGI in [1] was determined as 1.56 µM; in test [2], 22 µM; in test [3], 1.15 µM; in test [4], 4.31 µM; in test [5] it was 2.82 µM; in test [6], 4.22 µM. Further, the TGI in test [7] turned out to be 1.41 µM; in test [8], 4.57 µM; in test [9] it was 3.88 µM; in [10], 2.99 µM.
